The source of these data is patent US7651995B2, “Absorption enhancers such as e.g. BHT, BHA or propyl gallate” (Axcess Limited, priority 2003, dated 2010).

In this test the test system is Caco-2 cells. The test is described as follows: Trans-epithelial electrical resistance (TEER) across Caco-2 cell monolayer. In kind it is cell-based, human. As to conditions: Caco-2 monolayer; for TEER 15 minutes after addition: fall >50% of initial value considered significant; for TEER before addition: four replicates. Here is the method:
Caco-2 cells (a cell line derived from human colon adenocarcinoma) are grown as a confluent mono-layer on the surface of a porous membrane (pore size 0.4 μm, surface area 0.33 cm^2) separating two aqueous compartments, the upper compartment filled with 200 μl of culture medium, and the lower compartment containing 600 μl of the culture medium. Electrical resistance across the mono-layer is measured using an epithelial voltohmeter connected to electrodes inserted into the medium on either side of the mono-layer in the upper and lower compartments. This trans-epithelial electrical resistance (TEER) is measured immediately before, and fifteen minutes after the addition of aromatic alcohols to the upper compartment (typical results are given in the table below). Fall in TEER is considered indicative of the increased flow of materials (including bulk fluid phase) across the cell monolayer. Falls of greater than 50% of the initial value are considered significant. Reducing the concentration tends to reduce the effect observed.

Setting [1] is: agent 0.3 mg/ml in upper compartment.
The mark [2] stands for this setting: baseline immediately before addition of agent at 0.3 mg/ml.

`COc1ccc(O)c(C(C)(C)C)c1` [Butylated hydroxy anisole, butylated hydroxy anisole]: under setting [1], the “TEER 15 minutes after addition” value is listed as 183 ohm · cm^2. Besides, under setting [2], the TEER before addition is 564 ohm · cm^2.

As for `Cc1cc(C(C)(C)C)c(O)c(C(C)(C)C)c1` [Butylated hydroxy toluene, butylated hydroxy toluene], the “TEER 15 minutes after addition” value under setting [1] is 194 ohm · cm^2. Under setting [2], this molecule registered a TEER before addition of 633 ohm · cm^2.

In the case of `CCCOC(=O)c1cc(O)c(O)c(O)c1` [Propyl gallate, propyl gallate], the “TEER 15 minutes after addition” value is recorded as 629 ohm · cm^2 (agent 0.2 mg/ml in upper compartment) and −0.6 ohm · cm^2 (agent 13 mg/ml in upper compartment). In addition, the TEER before addition was determined as 667 ohm · cm^2 (baseline immediately before addition of agent at 0.2 mg/ml) and 494 ohm · cm^2 (baseline immediately before addition of agent at 13 mg/ml).
